Test results taken from patent publication US5773413A, “Method of combating mammalian neoplasias, and lytic peptides therefor” (Demeter Biotechnologies, Ltd., priority 1995, dated 1998).
Where a SMILES comes first, the peptide text is derived from it. [ ]: non-standard residue; d: D form. The star is where a group is joined. NMe2Phe = CN(C)[C@@H](Cc1ccccc1)C(=O)*; Lys(Me2) = CN(C)CCCC[C@H](N)C(=O)O

Tests used:
[1] = ALD evaluation, iv administration in mouse; assay type: in vivo; details: for μg/dose (Miv), lethal dose / μmol Miv, lethal dose: iv administration in mouse; for Lethality, verification dosing / Lethality: mice; for Lethality, verification dosing: one animal previously exposed to 0.01 μM; for [μM] T = 0, lethal concentration: second value of the cell (single value for D5-F), assigned to mouse iv because it fits μmol Miv
Experimental: (§1) In the following description, Riv=iv administration in rat, Rim=intramuscular administration in rat, Miv=iv administration in mouse, and Mim=intramuscular administration in mouse.
(§2) Lethality data and clinical observations were collected during the ALD evalution of the peptides denoted D5-F, DP-1, DP-1m. The data presented below are complete for D5-F and DP-1.
(§3) For all three compounds, two replicates were performed with both mice and rats. In the first replicate, the animals (one animal/dose) were exposed to a range of doses, 10.0, 5.0, 2.5, 1.0, 0.5, 0.25, 0.1, 0.05, 0.025, and 0.01 μM. For the second replicate, the lethal dose was diluted to produce an intermediate dose between the lethal dose and the subsequent nonlethal dose.
Replicate 2: For D5F and DP1, the high dose was diluted to 7.5 μM for the second replicate. The doses administered were 7.5, 5.0, 1.0, 0.5, 0.25, 0.1, 0.05, 0.025, and 0.01 μM. D5F was lethal at 7.5 μM, whereas DP1 was not. DP1m was again not lethal to the mice over the treatment levels delivered.
The effects of the highest dose (lethal--D5F and DP1, nonlethal--DP1 m) were verified by dosing one animal with the effective or highest no effect concentration used in Replicate 1. In the case of D5F, the dose of 7.5 μM was used to verify lethality observed in Replicate 2. The mice treated with these compounds were previously exposed to the lowest dose 0.01 μM. The doses were the following: D5F, 7.5 μM; DP1, 10.0 μM; and DP1m, 10.0 μM.

[2] = ALD evaluation, iv administration in rat; assay type: in vivo; details: for [μM] T = 0, lethal concentration: first value of the cell, assigned to rat iv because it fits μmol Riv; for μg/dose (Riv), lethal dose / μmol Riv, lethal dose: iv administration in rat; for Lethality, verification dosing: 10.0 μM, one naive animal
Experimental: as §1, §2, §3
Replicate2: For all compounds, the high dose was diluted to 7.5 μM for the second replicate. The doses administered were 7.5, 5.0, 2.5, 1.0, 0.5. 0.25, and 0.1 μM. D5F, DP1, and DP1m were lethal at 7.5 μM and were not lethal at the lower doses.
The lethality of the high dose was verified by dosing one animal with the lethal dose determined by Replicate 1. The rats used for the evaluation were remaining from the original shipment and were naive for treatment. The doses were the following: D5F, 10.0 μM; DP1, 10.0 μM; and DP1m, 10.0 μM.

[3] = ALD evaluation, intramuscular administration in rat; assay type: in vivo
Experimental: as §1, §2
For D5F and DP1, two replicates were performed with rats. In the first replicate, the animals (one animal/dose) were exposed to a range of doses; 10.0, 1.0, 0.1, and 0.01 μM. The dose range used was smaller than that originally planned due to the availability of the compound to prepare an adequate amount of dosing solution.

[4] = Solubility at the concentration required for im administration; assay type: physicochemical
[5] = iv, Replicate 1, lower concentrations (5.0 to 0.01 μM)
[6] = rats, iv, Replicate 1, lower concentrations
[7] = rats, iv, Replicate 2, lower doses (5.0 to 0.1 μM)

Row | Compound | μg/dose (Miv), lethal dose [1] [μg/dose] | μmol Miv, lethal dose [1] [µmol] | Lethality ([1]; iv, Replicate 1, 10.0 μM) | Lethality [1, 5] | [μM] T = 0, lethal concentration [1] [µM] | [μM] T = 0, lethal concentration [2] [µM] | μg/dose (Riv), lethal dose [2] | μmol Riv, lethal dose [2] [µmol] | Lethality, verification dosing ([2]; rats, iv) | Lethality ([2]; rats, iv, Replicate 1, 10.0 μM) | Lethality [2, 6] | Lethality ([2]; rats, iv, Replicate 2, 7.5 μM) | Lethality [2, 7] | μg/dose (Rim), lethal dose [3] | μmol Rim, lethal dose [3] | Lethality, verification dosing ([1]; iv, 10.0 μM) | also measured
1 | CC[C@H](C)[C@H](NC(=O)[C@H](C)NC(=O)[C@H](CCCNC(=N)N)NC(=O)[C@H](CC(C)C)NC(=O)CNC(=O)[C@@H](NC(=O)[C@H](C)NC(=O)[C@@H](N)Cc1ccccc1)C(C)C)C(=O)N[C@@H](CCCCN)C(=O)N[C@@H](CCCNC(=N)N)C(=O)N[C@@H](C)C(=O)N[C@@H](CC(C)C)C(=O)N[C@@H](CCCCN)C(=O)N[C@@H](CCCCN)C(=O)N[C@@H](CC(C)C)C(=O)N[C@@H](CCCNC(=N)N)C(=O)N[C@@H](CCCNC(=N)N)C(=O)NCC(=O)N[C@H](C(=O)N[C@@H](CCCNC(=N)N)C(=O)N[C@@H](CCCCN)C(=O)N[C@H](C(=O)N[C@@H](C)C(=O)N[C@@H](CCCCN)C(=O)N[C@@H](CC(=O)O)C(=O)N[C@@H](CC(C)C)C(=O)O)C(C)C)C(C)C [Peptide 16] (H-FAVGLRAIKRALKKLRRGVRKVAKDL-OH) | 541.62 | 0.15 | lethal | No lethality | 7.5 | 7.5 | 5,416.19 μg/dose | 1.5 | dead within four hours | lethal | No lethality | lethal | not lethal | not lethal | not lethal |  | Lethality, verification dosing ([1]; iv, 7.5 μM): dead within four hours; Lethality ([1]; iv, Replicate 2, 7.5 μM): lethal; Clinical Observations ([2]; rats, iv, 2.5 and 5.0 μM, ends of tails later sloughed off): discoloration of the tail
2 | CC(C)C[C@H](NC(=O)[C@H](C)NC(=O)[C@H](CCCCN)NC(=O)[C@H](CCCCN)NC(=O)[C@H](CC(C)C)NC(=O)[C@H](C)NC(=O)[C@H](CCCCN)NC(=O)[C@H](CCCCN)NC(=O)[C@H](CC(C)C)NC(=O)[C@H](CCCCN)NC(=O)[C@H](CCCCN)NC(=O)[C@H](CC(C)C)NC(=O)[C@H](C)NC(=O)[C@H](CCCCN)NC(=O)[C@H](CCCCN)NC(=O)[C@H](CC(C)C)NC(=O)[C@H](C)NC(=O)[C@H](CCCCN)NC(=O)[C@H](CC(C)C)NC(=O)[C@H](C)NC(=O)[C@H](CC(C)C)NC(=O)[C@H](C)NC(=O)[C@@H](N)Cc1ccccc1)C(=O)O [Peptide 19] (H-FALALKALKKALKKLKKALKKAL-OH) | 625.36 | 0.2 | lethal | No lethality | 10.0 | 7.5 | 4,689.41 μg/dose | 1.5 | dead within four hours | lethal | No lethality | lethal | not lethal | not lethal | not lethal | dead within four hours | 
3 | CC(C)C[C@H](NC(=O)[C@H](C)NC(=O)[C@H](CCCCN(C)C)NC(=O)[C@H](CCCCN(C)C)NC(=O)[C@H](CC(C)C)NC(=O)[C@H](C)NC(=O)[C@H](CCCCN(C)C)NC(=O)[C@H](CCCCN(C)C)NC(=O)[C@H](CC(C)C)NC(=O)[C@H](CCCCN(C)C)NC(=O)[C@H](CCCCN(C)C)NC(=O)[C@H](CC(C)C)NC(=O)[C@H](C)NC(=O)[C@H](CCCCN(C)C)NC(=O)[C@H](CCCCN(C)C)NC(=O)[C@H](CC(C)C)NC(=O)[C@H](C)NC(=O)[C@H](CCCCN(C)C)NC(=O)[C@H](CC(C)C)NC(=O)[C@H](C)NC(=O)[C@H](CC(C)C)NC(=O)[C@H](C)NC(=O)[C@H](Cc1ccccc1)N(C)C)C(=O)O [Peptide 20] (NMe2Phe-ALAL[Lys(Me2)]AL[Lys(Me2)][Lys(Me2)]AL[Lys(Me2)][Lys(Me2)]L[Lys(Me2)][Lys(Me2)]AL[Lys(Me2)][Lys(Me2)]AL-OH) | 685.36 | 0.2 | not lethal | No lethality | 10.0 | 7.5 | 5,139.41 μg/dose | 1.5 | dead within four hours | lethal | No lethality | lethal | not lethal | not lethal | not lethal | dead within four hours | Lethality ([1]; iv, Replicate 2, over the treatment levels delivered): not lethal; Clinical Observations ([1]; mouse, iv, 10 μM, end of tail later sloughed off): discoloration of the tail; solubility [4]: poor solubility
4 | CC[C@H](C)[C@H](NC(=O)[C@H](CCCCN)NC(=O)[C@H](CCCNC(=N)N)NC(=O)[C@H](C)NC(=O)[C@H](CC(C)C)NC(=O)[C@H](CCCCN)NC(=O)[C@H](CCCCN)NC(=O)[C@H](CC(C)C)NC(=O)[C@H](CCCNC(=N)N)NC(=O)[C@H](CCCNC(=N)N)NC(=O)CNC(=O)[C@@H](NC(=O)[C@H](CCCNC(=N)N)NC(=O)[C@H](CCCCN)NC(=O)[C@@H](NC(=O)[C@H](C)NC(=O)[C@H](CCCNC(=N)N)NC(=O)[C@H](CCCCN)NC(=O)[C@H](CCCNC(=N)N)NC(=O)[C@@H](N)CCCCN)C(C)C)C(C)C)C(=O)N[C@@H](C)C(=O)N[C@@H](CCCNC(=N)N)C(=O)N[C@@H](CC(C)C)C(=O)NCC(=O)N[C@H](C(=O)N[C@@H](C)C(=O)N[C@@H](Cc1ccccc1)C(=O)O)C(C)C [Peptide 13] (H-KRKRAVKRVGRRLKKLARKIARLGVAF-OH) | 158.72 | 0.05 |  |  | 2.5 | 2.0 | 1,269.78 μg/dose | 0.4 |  |  |  |  |  | not lethal | not lethal |  | 
